Test results as given in US20250236617A1, “BICYCLIC TETRAHYDROTHIAZEPINE DERIVATIVES” (Hoffmann-La Roche Inc., priority 2022, published 2025).

Legend:
primary human T-cells [1] = experiment: IL2 secretion measurements in CD3-stimulated T-cells; assay type: cell-based; settings: CD3 condition; for Emax IL2 (% activation): 24 hours, 20 μM reference compound A1 = 100%; for EC50: Homo sapiens, T-cell, IL2 secretion after 24 hours, read-out: Tcell IL2 CD3 EC50
Experimental: As readouts for T-cell activation, 1L2 secretion after 24 hours and proliferation after 5 days was measured. Increases in 1L2 secretion and proliferation upon compound treatment were assessed as the % of the maximum of reference compound A1. WO 2016/139181 discloses reference compound A1 as example 70. As a counter screen and to make sure that no unwanted TCR-independent activation was triggered, PBS conditions were run for all compounds.
Expanded primary human T-cells were thawed and cultured in RPMI 1640 (Gibco, #61870-010)+5% human serum (HS, Sigma, #H3667)+1 mM Sodium Pyruvate (Gibco, #11360-039)+50 μM 2-mercaptoethanol (Gibco, #31350-010) and 1× Pen-Strep (Life Technologies, #15140122) medium at density of 2 Mio/ml for 3 hours in 5% CO2, 37° C. and 95% humidity. For coating of plates, […] or PBS++ with CD3 antibody (concentration depending on donor and determined by CD3 titrations) was added 100 μl/well to Poly-D Lysine coated 96-well plates. Plates were sealed and incubated at room temperature for 3 hours on a table-top rocking platform. After incubation, plates were washed once with PBS−− and filled with 40 μl/well culture medium only. Compounds were then added (see next section) to medium only plates. After 3 hours of culturing the T-cells, cells were filtered through a cell strainer (Miltenyi Biotech, #130-041-407), counted again and concentration was adjusted to 1.25 Mio/ml.
Cells were then seeded 80 μl/well to the 40 μl/well including dispensed compounds according to plate layout. By adding cells, compounds were further diluted 1:3, and resulting in 100 k cells/120 μl/well. After 24 hours 40 μl of supernatant was collected carefully from the top while not disturbing the cells and transferred into a round bottom 96 well plate. Collected and frozen supernatant was used for detection of IL2 using the IL-2 Human ProQuantum Immunoassay Kit (Invitrogen) or using the Human IL-2 ELISA Kit (Thermo Fisher).
(§1) Compounds were added in a 5 or 6 pt dose response with the Tecan D300e Digital Dispenser, all conditions 3 times more concentrated than the end-concentration, since cells are added afterwards (80 μl cells to 40 μl prepared medium with treatment). The DR was starting at 20 μM or 10 μM final top concentration and a dilution factor of 3.333. The positive control was the reference compound A1 that was added in a dose response as well, additionally to 3 wells of only 20 μM representing the positive stimulator control. All wells were normalized with DMSO to a final concentration of 0.6% (0.2% end-concentration).
The immunoassay is done following the manufacturer's manual (Invitrogen, #A35603). Additional information: For the immunoassay, MicroAmp™ EnduraPlate™ Optical 384-Well plates are used. Frozen supernatant is thawed and centrifuged for 5 minutes at 1000×g, both steps at 4° C. After centrifugation, required sample amount is taken from the top, and in a separate LightCycler V-bottom plate (working plate) diluted with assay dilution buffer, dilution factor depending on the PBS or CD3 condition but at least 1:3. IL-2 standard and blanks are prepared in the same V-bottom plate, standard with a range of […] (extended version). After preparation, 5 μl of sample dilutions or standard/blanks are transferred to the optical 384-well plate (assay plate) and the 10 μl reaction protocol is being followed. For measurement, the QuantStudio 12K Flex system is used. Raw data is extracted and IL-2 concentrations are calculated with the Thermo Fisher online app (apps.thermofisher.com/apps/proquantum).
ELISA is done following the manufacturer's manual (Thermo Fisher Scientific, #88-7025-88). Additional information: For the ELISA Nunc MaxiSorp 96 well plates are used. Frozen supernatant is thawed and centrifuged for 5 minutes at 1000×g, both steps at 4° C. […]

primary human T-cells [2] = experiment: T-cell proliferation assay (CellTiter-Glo); assay type: cell-based; settings: CD3 condition; for EC50: Homo sapiens, T-cell, 120 h, proliferation after 5 days, CellTiter-Glo, read-out: Tcell Proliferation CD3 EC50; for Emax proliferation (% activation): 5 days, 20 μM reference compound A1 = 100%
Experimental: For coating of plates, PBS++ only or PBS++ with CD3 antibody (concentration depending on donor and determined by CD3 titrations) is added 100 μl/well to Poly-D Lysine coated 96-well plates. Plates are sealed and incubated at room temperature for 3 hours on a table-top rocking platform. After incubation, plates are washed once with PBS−− and filled with 40 μl/well culture medium only. Compounds are then added (see next section) to medium only plates. After 3 hours of culturing the T-cells, cells are filtered through a cell strainer (Miltenyi Biotech, #130-041-407), counted again and concentration is adjusted to 1.25 Mio/ml.
Cells are then seeded 80 μl/well to the 40 μl/well including dispensed compounds according to plate layout. By adding cells, compounds are further diluted 1:3, and resulting in 100 k cells/120 μl/well. After 48 hours 40 μl of supernatant is collected carefully from the top while not disturbing the cells. Cells are assessed for proliferation 5 days later by measuring […] using CellTiterGlo (Promega).
as §1, with “The DR was starting at 20 μM or 10 μM final top concentration and a dilution factor of 3.333.” left out
After 5 days, for detection of ATP which is directly proportional to the number of cells present per well, the CellTiter-Glo® 2.0 Reagent is used. After visual control for toxicity or precipitations of the tested compounds, the plates are equilibrated to room temperature for 45 minutes. CellTiter-Glo® 2.0 Reagent is equilibrated to room temperature as well. After equilibration, an equal amount of CellTiter-Glo reagent is added to the cells (80 μl/well) with an electronic multichannel pipette. Plates are placed on a rocking platform for 15 minutes at room temperature. After incubation, the bottom of the plates is sealed with backing tape. Luminescence is measured with PHERAstar FSX (interval time 0.5 sec, gain 3000, focal height 15 mm) and exported as CSV file for analysis in Genedata screener.
Calculations and Data Reporting CD3 and PBS plates were analysed separately in Genedata Screener using Roche Normalization PCT_POS_CTRL with DMSO set as Neutral Control and 20 μM of the reference compound A1 set as Stimulator Control/100%.
For CD3 conditions EC50 and Emax of the fitted sigmoidal curve were reported. If no curve could be fitted, the EC50 was reported as blank field and the Emax was based on individual data points. […] Compounds which activate unstimulated cells (see IL2 measurements) or compounds which negatively affected viability were flagged.

EC50 (primary human T-cells [1]) [nM] | SMILES | Emax IL2 (% activation) (primary human T-cells [1]) | EC50 (primary human T-cells [2]) [nM] | Emax proliferation (% activation) (primary human T-cells [2])
7380 | CC(C)(C)c1ccnc(-c2cc3c(cc2F)S(=O)(=O)C[C@H](N)C(=O)N3Cc2ccc(Cl)cc2)c1 [Example 1, (3R)-3-amino-7-(4-tert-butyl-2-pyridyl)-5-[(4-chlorophenyl)methyl]-8-fluoro-1,1-dioxo-2,3-dihydro-1λ6,5-benzothiazepin-4-one] | 56 | 1720 | –
829 | CC(C)(C)c1cc(-c2cc3c(cc2F)S(=O)(=O)C[C@H](N)C(=O)N3Cc2ccc(Cl)cc2)ccn1 [Example 3, (3R)-3-amino-7-(2-tert-butyl-4-pyridyl)-5-[(4-chlorophenyl)methyl]-8-fluoro-1,1-dioxo-2,3-dihydro-1λ6,5-benzothiazepin-4-one] | 56 | 1510 | –
2240 | CC(C)(C)c1cc(-c2cc3c(cc2F)S(=O)(=O)C[C@H](N)C(=O)N3Cc2ccc(Cl)cc2)ncn1 [Example 4, (3R)-3-amino-7-(6-tert-butylpyrimidin-4-yl)-5-[(4-chlorophenyl)methyl]-8-fluoro-1,1-dioxo-2,3-dihydro-1λ6,5-benzothiazepin-4-one] | 81 | 408 | –
> 10000 | COc1cc(-c2cc3c(cc2F)S(=O)(=O)C[C@H](N)C(=O)N3Cc2ccc(Cl)cc2)cnn1 [Example 6, (3R)-3-amino-5-[(4-chlorophenyl)methyl]-8-fluoro-7-(6-methoxypyridazin-4-yl)-1,1-dioxo-2,3-dihydro-1λ6,5-benzothiazepin-4-one] | 14 | 1410 | –
3200 | CC(C)Oc1cc(-c2cc3c(cc2F)S(=O)(=O)C[C@H](N)C(=O)N3Cc2ccc(Cl)cc2)cnn1 [Example 7, (3R)-3-amino-5-[(4-chlorophenyl)methyl]-8-fluoro-7-(6-isopropoxypyridazin-4-yl)-1,1-dioxo-2,3-dihydro-1λ6,5-benzothiazepin-4-one] | 49 | 172 | –
> 20000 | N[C@H]1CS(=O)(=O)c2cc(F)c(-c3cc(C(F)(F)F)ccn3)cc2N(Cc2ccc(Cl)cc2)C1=O [Example 8, (3R)-3-amino-5-[(4-chlorophenyl)methyl]-8-fluoro-1,1-dioxo-7-[4-(trifluoromethyl)-2-pyridyl]-2,3-dihydro-1λ6,5-benzothiazepin-4-one] | 37 | 1310 | 100
– | N[C@H]1CS(=O)(=O)c2cc(F)c(-c3cccc(C(F)(F)F)n3)cc2N(Cc2ccc(Cl)cc2)C1=O [Example 9, (3R)-3-amino-5-[(4-chlorophenyl)methyl]-8-fluoro-1,1-dioxo-7-[6-(trifluoromethyl)-2-pyridyl]-2,3-dihydro-1λ6,5-benzothiazepin-4-one] | – | 6690 | 76
1820 | N[C@H]1CS(=O)(=O)c2cc(F)c(-c3nccc(C(F)(F)F)n3)cc2N(Cc2ccc(Cl)cc2)C1=O [Example 10, (3R)-3-amino-5-[(4-chlorophenyl)methyl]-8-fluoro-1,1-dioxo-7-[4-(trifluoromethyl)pyrimidin-2-yl]-2,3-dihydro-1λ6,5-benzothiazepin-4-one] | 44 | 3570 | –
2780 | CC(C)(C)c1cnc(-c2cc3c(cc2F)S(=O)(=O)C[C@H](N)C(=O)N3Cc2ccc(Cl)cc2)nn1 [Example 12, (3R)-3-amino-7-(6-tert-butyl-1,2,4-triazin-3-yl)-5-[(4-chlorophenyl)methyl]-8-fluoro-1,1-dioxo-2,3-dihydro-1λ6,5-benzothiazepin-4-one] | 77 | 1670 | –
> 10000 | Cc1nnc(-c2cc3c(cc2F)S(=O)(=O)C[C@H](N)C(=O)N3Cc2ccc(Cl)cc2)nc1-c1ccccc1 [Example 13, (3R)-3-amino-5-[(4-chlorophenyl)methyl]-8-fluoro-7-(6-methyl-5-phenyl-1,2,4-triazin-3-yl)-1,1-dioxo-2,3-dihydro-1λ6,5-benzothiazepin-4-one] | 48 | 3640 | –
1630 | CC(C)Oc1ccc(CN2C(=O)[C@@H](N)CS(=O)(=O)c3cc(F)c(-c4nncc(C(C)(C)C)n4)cc32)cc1 [Example 14, (3R)-3-amino-7-(5-tert-butyl-1,2,4-triazin-3-yl)-8-fluoro-5-[(4-isopropoxyphenyl)methyl]-1,1-dioxo-2,3-dihydro-1λ6,5-benzothiazepin-4-one] | 73 | 254 | –
1650 | CCN(CC)c1cnnc(-c2cc3c(cc2F)S(=O)(=O)C[C@H](N)C(=O)N3Cc2ccc(Cl)cc2)n1 [Example 15, (3R)-3-amino-5-[(4-chlorophenyl)methyl]-7-[5-(diethylamino)-1,2,4-triazin-3-yl]-8-fluoro-1,1-dioxo-2,3-dihydro-1λ6,5-benzothiazepin-4-one] | 79 | 1710 | –
– | N[C@H]1CS(=O)(=O)c2cc(F)c(-c3cnnc(C4(C(F)(F)F)CC4)c3)cc2N(Cc2ccc(-c3noc(C(F)(F)F)n3)cc2)C1=O [Example 37, (3R)-3-amino-8-fluoro-1,1-dioxo-7-[6-[1-(trifluoromethyl)cyclopropyl]pyridazin-4-yl]-5-[[4-[5-(trifluoromethyl)-1,2,4-oxadiazol-3-yl]phenyl]methyl]-2,3-dihydro-1λ6,5-benzothiazepin-4-one] | – | 729 | 147
